What was measured:
SKBR-3 cells [1] = experiment: Cytotoxicity assay (CCK8 kit); assay type: cell-based, human; conditions: for IC50: 48 h incubation, 0 to 1 μM, CCK8, from dose response log curves
Text: (§1) Based on the specific acidic tumor microenvironment (pH5.4–7.0), an acid-responsive linker was designed to undergo acid hydrolysis after cellular uptake, releasing the drug into endosomes or lysosomes to achieve site-specific delivery. It is theoretically possible that a HPD with an acid-sensitive hydrazone bond can display a regulated release behavior when the external pH value is altered. As observed from the drug release profile in Figure 3a, the PDC remains structurally stable in PBS at a pH of 7.4, as only about 35% of DOX is released within 24 h. In contrast, when the pH of PBS is reduced to 5.8, there is an explosive release of DOX in acidic media due to the pH-sensitive hydrolysis of the […] bond between DOX and the EMCH linker. […] Figure 3b illustrates that the cytotoxicity of the PDC and free DOX on SKBR-3 cells augmented with prolonged incubation time. When the equivalent concentration was 1 μM, the viability of SKBR-3 cells in the PDC group was 26.3%. […] To determine if our novel conjugate could enhance the effect of DOX through PEGylation and HER2-receptor-mediated internalization, we tested the cytotoxic effect of the PDC on MCF-7 and SKBR-3 breast cancer cells.
Cultures of SKBR-3 and MCF-7 cells were established in DMEM medium supplemented with 10% fetal bovine serum, 100 U/mL penicillin, and 100 μg/mL streptomycin at 37 °C and 5% CO2. Approximately 1 × 10^5 cells/mL were seeded into culture dishes and incubated overnight. Subsequently, 0.5 mg/mL PDC was added and incubated for 2–8 h in conjunction with an equal amount of free DOX as a control. After washing three times with PBS, Hoechst 33342 and LysoTracker Green DND-26 were added to stain the nucleus and lysosome for 15 min, followed by three additional washes with PBS. Finally, confocal fluorescence images were obtained using a Zeiss 710 system. SKBR-3 cells were seeded in a 96-well culture plate at a density of 5000 cells per well and incubated for 24 h. Afterwards, cytotoxicity investigations were conducted by incubating the cells with the PDC and free DOX (in concentrations from 0 to 1 μM) for 48 h. Then, the CCK8 kit was used to detect cell survival.

BALB/c nude mice = experiment: In vivo safety: body weight and H&E staining of major organs; conditions: 5 mg/kg equivalent DOX i.v., five times every two days; for body weight change versus PBS group: n = 4; for H&E histology of major organs: compared with PBS group
Experimental: (§2) In vivo anti-tumor studies were evaluated by using SKBR-3 xenografted (BALB/c nude) mice treated with the PDC, free DOX, or saline. […] Additionally, histological examination of the tumors was performed. […] A TUNEL assay indicated a greater number of apoptotic cells after treatments with the PDC group compared to the free DOX group and reduced the offtarget effects (Figure 5d).
Good biocompatibility and the acceptable biosafety of a drug are essential for its biological application. […] The PDC had higher in vivo anti-tumor efficacy than DOX without apparent toxicities.
(§3) In this study, a total of 12 female BALB/c mice (22–24 g) were used, and all animal experiments were conducted in compliance with the ethical guidelines approved by the ethics committee of Fujian Medical University. Approximately 2 × 10^6 SKBR-3 cells were injected subcutaneously in the right hind limb of the nude mice. Upon the tumor reaching a volume of around 100 mm^3, the mice were randomly allocated into three groups (n = 4) and administered through the tail vein with PBS, free DOX solution, and PDC solution (5 mg/kg equivalent DOX), respectively, five times every two days. Saline was used as a negative control. After each administration, the size and weight of the tumor were assessed. Subsequently, the mice were euthanized, and their tumor tissues and other major organs were dissected and preserved with 4% formaldehyde. Paraffin sections were then produced, and the fixed paraffin-embedded tissues were sliced into 5 μm sections for hematoxylin and eosin (H&E) and TUNEL (terminal deoxynucleotidyl transferase dUTP nick-end labeling) analyses.

[2] = test system: SKBR-3 xenografted (BALB/c nude) mice; experiment: In vivo anti-tumor study; conditions: SKBR-3 xenograft, 5 mg/kg equivalent DOX, tail vein, five times every two days, n = 4, day 14
Experimental: as §2
as §3, with “Paraffin sections were then produced, and the fixed paraffin-embedded tissues were sliced into 5 μm sections for hematoxylin and eosin (H&E) and TUNEL (terminal deoxynucleotidyl transferase dUTP nick-end labeling) analyses.” left out

[3] = In vitro DOX release from the PDC (dialysis in PBS); assay type: physicochemical; conditions: fluorescence at 589 nm
Text: as §1
To quantify the amount of DOX released from the PDC, 1 mg of the substance was dissolved in 2 mL of ultra-pure water and placed into a dialysis bag (MWCO 1000 Da). This bag was then transferred to a tube containing 10 mL of PBS solution with varying pH values (7.4 and 5.8). The tube was stirred at 37 °C in the dark and samples of the PBS solution were collected at different intervals. Subsequently, a new 10 mL of PBS was added to the tube after each sample. The samples were analyzed for released DOX concentration using a fluorescence spectrophotometer at 589 nm and the DOX concentration was calculated based on a standard curve. The PDC was incubated with human plasma (final peptide concentration of 50 μM) for 0, 2, 4, 8, 12, 24, and 48 h in order to assess the stability of the conjugate. Then, […] of the solution was mixed with […] of methanol to terminate enzymatic hydrolyses. After centrifugation at 13,000× g for 10 min, the supernatant was collected and the intact percentage of the PDC was detected by HPLC [19].

SKBR-3 cells [4] = experiment: Cellular uptake and lysosome colocalization by CLSM; assay type: cell-based, human
Experimental: To assess the uptake efficiency of the PDC in tumor cells, human breast cancer cell lines SKBR-3 (high expression of HER2) were used as positive cells, and the MCF-7 cell line was used as a negative control. […] Along with the incubation time, DOX escaped from the lysosomes, and brighter red fluorescence was detected in the nuclei after 8 h of incubation (Figure 4a). It has been observed that peptide conjugates in the acidic environment of endosomes/lysosomes undergo hydrolysis at the acid-response hydrazone linker, thereby releasing DOX into cells, which is in line with prior reports. […] The lysosomal escape ability was evaluated by the localization of the PDC and lysosomes in SKBR-3 cells (Figure 4c), evidenced by the separation of red (DOX) and green (LysoTracker) fluorescence.
Cultures of SKBR-3 and MCF-7 cells were established in DMEM medium supplemented with 10% fetal bovine serum, 100 U/mL penicillin, and 100 μg/mL streptomycin at 37 °C and 5% CO2. Approximately 1 × 10^5 cells/mL were seeded into culture dishes and incubated overnight. Subsequently, 0.5 mg/mL PDC was added and incubated for 2–8 h in conjunction with an equal amount of free DOX as a control. […] Finally, confocal fluorescence images were obtained using a Zeiss 710 system. […]

[5] = Stability of the PDC in human serum/plasma by HPLC; assay type: in vitro ADME; conditions: human serum (methods: human plasma), 37 °C
Text: HP (calcd Mw: 3183.7) was successfully synthesized by using solid-phase peptide synthesis (SPPS), and the peptides were cleaved and purified by HPLC (Figure S2) afterward and verified by using electrospray ionization mass spectrometry examinations (Figure 2a). […] The mass charge ratio (m/z) obtained by the experiment is consistent with the theoretical m/z. […] Polyethylene glycol (PEG) has been widely used to modify small molecules to slow renal clearance and to increase the half-life. It is essential that the PDC be maintained in a steady circulation to prevent pre-release of cytotoxic payloads, resulting in systemic toxicity. […] To assess plasma stability, the PDC was incubated with human serum at 37 °C from 0 to 48 h, and aliquots were taken at different time points and analyzed by using HPLC. […]
To quantify the amount of DOX released from the PDC, 1 mg of the substance was dissolved in 2 mL of ultra-pure water and placed into a dialysis bag (MWCO 1000 Da). […] The samples were analyzed for released DOX concentration using a fluorescence spectrophotometer at 589 nm and the DOX concentration was calculated based on a standard curve. […] After centrifugation at 13,000× g for 10 min, the supernatant was collected and the intact percentage of the PDC was detected by HPLC [19].

| SMILES | IC50 (SKBR-3 cells [1]; SKBR-3 cells) | body weight change versus PBS group (BALB/c nude mice) | H&E histology of major organs (BALB/c nude mice) | reduction of tumor growth on day 14 post treatment [2] | cytotoxic effect on SKBR-3 versus MCF-7 breast cancer cells (SKBR-3 cells [1]; 48 h, Figure S4, HER2 high-expression SKBR-3 vs MCF-7) | IC50 of the PDC relative to free DOX (SKBR-3 cells [1]; SKBR-3 cells, 48 h) | viability of SKBR-3 cells (SKBR-3 cells [1]; equivalent concentration 1 μM, 48 h, CCK8) | DOX released within 8 h, pH 5.8 ([3]; PBS pH 5.8, 37 °C, dialysis MWCO 1000 Da, 8 h) | DOX released within 24 h, pH 5.8 ([3]; PBS pH 5.8, 37 °C, dialysis MWCO 1000 Da, 24 h) | DOX released, pH 5.8, start of the rise ([3]; PBS pH 5.8, 37 °C, dialysis MWCO 1000 Da, early value, time not given) | DOX released within 24 h, pH 7.4 ([3]; PBS pH 7.4, 37 °C, dark, dialysis bag MWCO 1000 Da, 1 mg in 2 mL water against 10 mL PBS, 24 h) | uptake of the PDC in SKBR-3 versus MCF-7 cells (SKBR-3 cells [4]; CLSM, Figure S3, HER2 negative MCF-7) | cellular uptake relative to free DOX (SKBR-3 cells [4]; HER2-positive SKBR-3 cells) | half-life at 50 μM ([5]; 50 μM final peptide concentration, 0-48 h, methanol quench, intact PDC by HPLC, read-out: half-life of the conjugate (converted)) | remaining at 48 h, 50 μM ([5]; 50 μM, 48 h incubation, HPLC, read-out: intact conjugate remaining at 48 h) |
| --- | --- | --- | --- | --- | --- | --- | --- | --- | --- | --- | --- | --- | --- | --- | --- |
| COc1cccc2c1C(=O)c1c(O)c3c(c(O)c1C2=O)C[C@@](O)(C(=O)CO)C[C@@H]3O[C@H]1C[C@H](N)[C@H](O)[C@H](C)O1.Cl [free DOX, doxorubicin hydrochloride, reference compound] | 410 nM | significantly decreased | clear cardiotoxicities | 23.13 ± 2.4% | – | – | – | – | – | – | – | – | – | – | – |
| COc1cccc2c1C(=O)c1c(O)c3c(c(O)c1C2=O)C[C@@](O)(C(CO)=NNC(=O)CCCCCN1C(=O)CC(SC[C@H](NC(=O)CCOCCOCCOCCOCCNC(=O)[C@H](CCCCNC(=O)CCOCCOCCOCCOCCNC(=O)[C@H](CCCCN)NC(=O)[C@H](CC(C)C)NC(=O)[C@H](CCCNC(=N)N)NC(=O)[C@H](CC(C)C)NC(=O)[C@H](CCC(=O)O)NC(=O)[C@H](Cc2c[nH]c4ccccc24)NC(=O)[C@H](CC(N)=O)NC(=O)[C@@H](N)CCCNC(=N)N)NC(=O)CCOCCOCCOCCOCCNC(=O)[C@H](CCCCN)NC(=O)[C@H](CC(C)C)NC(=O)[C@H](CCCNC(=N)N)NC(=O)[C@H](CC(C)C)NC(=O)[C@H](CCC(=O)O)NC(=O)[C@H](Cc2c[nH]c4ccccc24)NC(=O)[C@H](CC(N)=O)NC(=O)[C@@H](N)CCCNC(=N)N)C(=O)O)C1=O)C[C@@H]3O[C@H]1C[C@H](N)[C@H](O)[C@H](C)O1 (stereo partly shown) [PDC] | 143 nM | no noteworthy distinction in body weight | no morphological aberrations in organ tissues | 51.1 ± 3.1% | significantly more cytotoxic in the HER2 high-expression cell lines | three times less | 26.3% | 78% | ~90% | around 20% | about 35% | higher uptake rate | 2.9 times | ~24 h | ~15% |

— PMC10003747, “A Novel Homodimer Peptide–Drug Conjugate Improves the Efficacy of HER2-Positive Breast Cancer Therapy” (International Journal of Molecular Sciences, 2023)
